{"source": "the supplement of paper PMC10307832", "experiment_in_all_cases": "relative viability (nuclei count vs DMSO), 5 days (fraction); higher = more cells survive", "key": {"[1]": {"system": "NCI-H2023", "in_short": "(§1)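 Medians of duplicate plates are given as relative viability. That measure is the nuclei count in treated wells divided by the count in vehicle wells. Counts were taken on 4× images of lung cancer cell lines in 1536-well plates, 5 days after pin-tool dosing the day after seeding with one drug alone or a fixed anchor-drug dose plus five library-drug doses (not always all listed) in √10 steps.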"}, "[2]": {"system": "LU99A", "in_short": "as §1"}, "[3]": {"system": "HCC-78", "in_short": "as §1"}, "[4]": {"system": "NCI-H1651", "in_short": "as §1"}, "[5]": {"system": "UMC-11", "in_short": "as §1"}, "[6]": {"system": "SW 1573", "in_short": "as §1"}, "[7]": {"system": "NCI-H2085", "in_short": "as §1"}, "[8]": {"system": "NCI-H650", "in_short": "as §1"}, "[9]": {"system": "LC-2-ad", "in_short": "as §1"}, "[10]": {"system": "HARA", "in_short": "as §1"}, "[11]": {"system": "NCI-H1993", "in_short": "as §1"}, "[12]": {"system": "NCI-H1355", "in_short": "as §1"}, "[13]": {"system": "COR-L23", "in_short": "as §1"}, "[14]": {"system": "ABC-1", "in_short": "as §1"}, "[15]": {"system": "EPLC-272H", "in_short": "as §1"}, "[16]": {"system": "NCI-H1915", "in_short": "as §1"}, "[17]": {"system": "HCC-15", "in_short": "as §1"}, "[18]": {"system": "NCI-H358", "in_short": "as §1"}, "[19]": {"system": "NCI-H2126", "in_short": "as §1"}, "[20]": {"system": "PC-14", "in_short": "as §1"}, "[21]": {"system": "NCI-H838", "in_short": "as §1"}, "[22]": {"system": "NCI-H2347", "in_short": "as §1"}}, "data": [{"smiles": "CC1(C)CCC(c2ccc(Cl)cc2)=C(CN2CCN(c3ccc(C(=O)NS(=O)(=O)c4ccc(N[C@H](CCN5CCOCC5)CSc5ccccc5)c(S(=O)(=O)C(F)(F)F)c4)cc3)CC2)C1", "note": "[Navitoclax] + CS(=O)(=O)CCNCc1ccc(-c2ccc3ncnc(Nc4ccc(OCc5cccc(F)c5)c(Cl)c4)c3c2)o1 [Lapatinib] (partner 2 µM)", "values": [{"measurement": "relative viability", "setting": "[1]; first compound 0.005 µM", "value": 0.953}, {"measurement": "relative viability", "setting": "[1]; first compound 0.01581 µM", "value": 1.13}, {"measurement": "relative viability", "setting": "[1]; first compound 0.05 µM", "value": 0.685}, {"measurement": "relative viability", "setting": "[1]; first compound 0.1581 µM", "value": 0.927}, {"measurement": "relative viability", "setting": "[1]; first compound 0.5 µM", "value": 0.816}, {"measurement": "relative viability", "setting": "[2]; first compound 0.005 µM", "value": 0.985}, {"measurement": "relative viability", "setting": "[2]; first compound 0.01581 µM", "value": 1.19}, {"measurement": "relative viability", "setting": "[2]; first compound 0.05 µM", "value": 0.977}, {"measurement": "relative viability", "setting": "[2]; first compound 0.1581 µM", "value": 1.04}, {"measurement": "relative viability", "setting": "[2]; first compound 0.5 µM", "value": 1.07}, {"measurement": "relative viability", "setting": "[3]; first compound 0.005 µM", "value": 0.704}, {"measurement": "relative viability", "setting": "[3]; first compound 0.01581 µM", "value": 0.987}, {"measurement": "relative viability", "setting": "[3]; first compound 0.1581 µM", "value": 0.75}, {"measurement": "relative viability", "setting": "[3]; first compound 0.5 µM", "value": 0.76}, {"measurement": "relative viability", "setting": "[4]; first compound 0.005 µM", "value": 0.767}, {"measurement": "relative viability", "setting": "[4]; first compound 0.01581 µM", "value": 0.984}, {"measurement": "relative viability", "setting": "[4]; first compound 0.1581 µM", "value": 0.803}, {"measurement": "relative viability", "setting": "[4]; first compound 0.5 µM", "value": 0.837}, {"measurement": "relative viability", "setting": "[5]; first compound 0.005 µM", "value": 0.862}, {"measurement": "relative viability", "setting": "[5]; first compound 0.01581 µM", "value": 1.02}, {"measurement": "relative viability", "setting": "[5]; first compound 0.05 µM", "value": 0.747}, {"measurement": "relative viability", "setting": "[5]; first compound 0.1581 µM", "value": 0.858}, {"measurement": "relative viability", "setting": "[5]; first compound 0.5 µM", "value": 0.481}, {"measurement": "relative viability", "setting": "[6]; first compound 0.005 µM", "value": 1.22}, {"measurement": "relative viability", "setting": "[6]; first compound 0.01581 µM", "value": 1.08}, {"measurement": "relative viability", "setting": "[6]; first compound 0.05 µM", "value": 1.01}, {"measurement": "relative viability", "setting": "[6]; first compound 0.1581 µM", "value": 1.04}, {"measurement": "relative viability", "setting": "[6]; first compound 0.5 µM", "value": 1.09}, {"measurement": "relative viability", "setting": "[7]; first compound 0.005 µM", "value": 0.754}, {"measurement": "relative viability", "setting": "[7]; first compound 0.01581 µM", "value": 0.895}, {"measurement": "relative viability", "setting": "[7]; first compound 0.05 µM", "value": 0.692}, {"measurement": "relative viability", "setting": "[7]; first compound 0.1581 µM", "value": 0.822}, {"measurement": "relative viability", "setting": "[7]; first compound 0.5 µM", "value": 0.814}, {"measurement": "relative viability", "setting": "[8]; first compound 0.005 µM", "value": 0.709}, {"measurement": "relative viability", "setting": "[8]; first compound 0.01581 µM", "value": 0.977}, {"measurement": "relative viability", "setting": "[8]; first compound 0.05 µM", "value": 1.07}, {"measurement": "relative viability", "setting": "[8]; first compound 0.1581 µM", "value": 0.894}, {"measurement": "relative viability", "setting": "[8]; first compound 0.5 µM", "value": 0.881}, {"measurement": "relative viability", "setting": "[9]; first compound 0.005 µM", "value": 0.936}, {"measurement": "relative viability", "setting": "[9]; first compound 0.01581 µM", "value": 1.02}, {"measurement": "relative viability", "setting": "[9]; first compound 0.05 µM", "value": 0.898}, {"measurement": "relative viability", "setting": "[9]; first compound 0.1581 µM", "value": 1.01}, {"measurement": "relative viability", "setting": "[9]; first compound 0.5 µM", "value": 0.96}, {"measurement": "relative viability", "setting": "[10]; first compound 0.005 µM", "value": 0.686}, {"measurement": "relative viability", "setting": "[10]; first compound 0.01581 µM", "value": 1}, {"measurement": "relative viability", "setting": "[10]; first compound 0.05 µM", "value": 0.799}, {"measurement": "relative viability", "setting": "[10]; first compound 0.1581 µM", "value": 0.728}, {"measurement": "relative viability", "setting": "[10]; first compound 0.5 µM", "value": 1}, {"measurement": "relative viability", "setting": "[11]; first compound 0.005 µM", "value": 0.849}, {"measurement": "relative viability", "setting": "[11]; first compound 0.01581 µM", "value": 0.855}, {"measurement": "relative viability", "setting": "[11]; first compound 0.05 µM", "value": 0.756}, {"measurement": "relative viability", "setting": "[11]; first compound 0.1581 µM", "value": 0.795}, {"measurement": "relative viability", "setting": "[11]; first compound 0.5 µM", "value": 0.883}, {"measurement": "relative viability", "setting": "[12]; first compound 0.005 µM", "value": 0.988}, {"measurement": "relative viability", "setting": "[12]; first compound 0.01581 µM", "value": 0.956}, {"measurement": "relative viability", "setting": "[12]; first compound 0.05 µM", "value": 1.03}, {"measurement": "relative viability", "setting": "[12]; first compound 0.1581 µM", "value": 1.05}, {"measurement": "relative viability", "setting": "[12]; first compound 0.5 µM", "value": 1.02}, {"measurement": "relative viability", "setting": "[13]; first compound 0.005 µM", "value": 0.919}, {"measurement": "relative viability", "setting": "[13]; first compound 0.01581 µM", "value": 1.25}, {"measurement": "relative viability", "setting": "[13]; first compound 0.05 µM", "value": 1.33}, {"measurement": "relative viability", "setting": "[13]; first compound 0.1581 µM", "value": 0.705}, {"measurement": "relative viability", "setting": "[13]; first compound 0.5 µM", "value": 0.922}, {"measurement": "relative viability", "setting": "[14]; first compound 0.005 µM", "value": 1.1}, {"measurement": "relative viability", "setting": "[14]; first compound 0.01581 µM", "value": 1.46}, {"measurement": "relative viability", "setting": "[14]; first compound 0.05 µM", "value": 1.09}, {"measurement": "relative viability", "setting": "[14]; first compound 0.1581 µM", "value": 1.19}, {"measurement": "relative viability", "setting": "[14]; first compound 0.5 µM", "value": 1.05}, {"measurement": "relative viability", "setting": "[15]; first compound 0.005 µM", "value": 0.904}, {"measurement": "relative viability", "setting": "[15]; first compound 0.1581 µM", "value": 0.906}, {"measurement": "relative viability", "setting": "[15]; first compound 0.5 µM", "value": 0.881}, {"measurement": "relative viability", "setting": "[16]; first compound 0.005 µM", "value": 0.915}, {"measurement": "relative viability", "setting": "[16]; first compound 0.01581 µM", "value": 0.953}, {"measurement": "relative viability", "setting": "[16]; first compound 0.05 µM", "value": 0.819}, {"measurement": "relative viability", "setting": "[16]; first compound 0.1581 µM", "value": 0.862}, {"measurement": "relative viability", "setting": "[16]; first compound 0.5 µM", "value": 0.868}, {"measurement": "relative viability", "setting": "[17]; first compound 0.005 µM", "value": 0.814}, {"measurement": "relative viability", "setting": "[17]; first compound 0.01581 µM", "value": 0.946}, {"measurement": "relative viability", "setting": "[17]; first compound 0.05 µM", "value": 0.713}, {"measurement": "relative viability", "setting": "[17]; first compound 0.1581 µM", "value": 0.813}, {"measurement": "relative viability", "setting": "[17]; first compound 0.5 µM", "value": 0.836}, {"measurement": "relative viability", "setting": "[18]; first compound 0.005 µM", "value": 0.481}, {"measurement": "relative viability", "setting": "[18]; first compound 0.01581 µM", "value": 0.601}, {"measurement": "relative viability", "setting": "[18]; first compound 0.05 µM", "value": 0.397}, {"measurement": "relative viability", "setting": "[18]; first compound 0.1581 µM", "value": 0.482}, {"measurement": "relative viability", "setting": "[18]; first compound 0.5 µM", "value": 0.583}, {"measurement": "relative viability", "setting": "[19]; first compound 0.005 µM", "value": 0.784}, {"measurement": "relative viability", "setting": "[19]; first compound 0.01581 µM", "value": 0.757}, {"measurement": "relative viability", "setting": "[19]; first compound 0.05 µM", "value": 0.739}, {"measurement": "relative viability", "setting": "[19]; first compound 0.1581 µM", "value": 0.729}, {"measurement": "relative viability", "setting": "[19]; first compound 0.5 µM", "value": 0.702}, {"measurement": "relative viability", "setting": "[20]; first compound 0.005 µM", "value": 0.343}, {"measurement": "relative viability", "setting": "[20]; first compound 0.01581 µM", "value": 0.343}, {"measurement": "relative viability", "setting": "[20]; first compound 0.05 µM", "value": 0.283}, {"measurement": "relative viability", "setting": "[20]; first compound 0.1581 µM", "value": 0.385}, {"measurement": "relative viability", "setting": "[20]; first compound 0.5 µM", "value": 0.338}, {"measurement": "relative viability", "setting": "[21]; first compound 0.005 µM", "value": 0.921}, {"measurement": "relative viability", "setting": "[21]; first compound 0.01581 µM", "value": 1.16}, {"measurement": "relative viability", "setting": "[21]; first compound 0.05 µM", "value": 1.29}, {"measurement": "relative viability", "setting": "[21]; first compound 0.1581 µM", "value": 0.97}, {"measurement": "relative viability", "setting": "[21]; first compound 0.5 µM", "value": 1.03}, {"measurement": "relative viability", "setting": "[22]; first compound 0.005 µM", "value": 0.957}, {"measurement": "relative viability", "setting": "[22]; first compound 0.01581 µM", "value": 1.09}, {"measurement": "relative viability", "setting": "[22]; first compound 0.05 µM", "value": 0.753}, {"measurement": "relative viability", "setting": "[22]; first compound 0.1581 µM", "value": 0.765}, {"measurement": "relative viability", "setting": "[22]; first compound 0.5 µM", "value": 0.923}]}]}
